# Patent US12697343B2, “Intravenous istaroxime for the treatment of acute heart failure” (Seismic Pharmaceuticals Operations LLC, priority 2021, dated 2026)
# Structures can show the parent of a compound that is named as a salt.
# Columns and labels:
# [1] = system: patients hospitalized for acute heart failure (AHF); assay: Diuresis over 24 h during and after study drug infusion; type: in vivo, human
# Excerpt: (§1) This study was a phase II, multicenter, randomized, double-blind, placebo-controlled, parallel group investigation, conducted at two sites in Italy and eight sites in China. All patients provided written informed consent. The study was approved by country regulatory authorities and by local institutional review boards. The trial is registered in the European Clinical Trials Database (EudraCT 2013-000540-26) and ClinicalTrials.gov (NCT02617446).
# (§2) Patients were randomized 2:1 to istaroxime or placebo 24 h infusion and were enrolled in two sequential cohorts, the first with an istaroxime dose of 0.5 μg/kg/min and the second with an istaroxime dose of 1.0 μg/kg/min. At the end of cohort 1 enrollment, an independent Data Safety and Monitoring Board conducted an interim safety analysis of unblinded data before proceeding to cohort 2 enrollment. Inclusion criteria were: age ≥18 years, an ongoing hospitalization for AHF with dyspnoea at rest or minimal exertion and need for intravenous diuretic therapy (40 mg intravenous furosemide), SBP between 90 and 125 mmHg without signs or symptoms of peripheral hypoperfusion: LVEF ≤40%: intermediate to high E/e′ ratio by tissue Doppler echocardiography (10); brain natriuretic peptide (BNP) or N-terminal pro BNP (NT-proBNP) plasma levels ≥350 pg/mL or ≥1400 pg/mL, respectively, and presence of adequate echocardiographic windows. The main exclusion criteria were: concomitant or planned treatment with intravenous vasodilators, inotropes or vasopressors: treatment with oral digoxin (patients treated with digoxin within the last week could be randomized if the plasma concentration at screening was 0.5 ng/mL); acute coronary syndrome or stroke within the past 3 months: coronary artery bypass graft or percutaneous coronary intervention within the past month or planned in the next month: resting HR >120 bpm or <50 bpm: life-threatening ventricular arrhythmia or implantable cardioverter-defibrillator shock within the past month: fever 38° C.; serum creatinine 3.0 mg/dL or estimated glomerular filtration rate (eGFR) 30 mL/min/m2; serum potassium 5.3 mmol/L or 3.8 mmol/L; severe hepatic dysfunction.
# The study design included a 24 h screening period, a 24 h study drug infusion phase (day 1), a post-treatment phase (days 2-4), and a follow-up visit at day 30 (FIG. 5). Patients could be enrolled at any time after admission. The use of oral medications was permitted during the study with the exception of digoxin. Intravenous diuretics were permitted during the treatment period at stable doses, unless changes were required due to clinically relevant variations of the patient's condition. If treatment with an inotrope was clinically necessary during the infusion period, the investigational product was discontinued. Echocardiography was performed according to international standards at screening, baseline (just before starting study drug infusion), 6, 24 h (just before infusion end), and 48 h after infusion start. Echocardiographic measurements at baseline, 6, 24, and 48 h were evaluated in a blinded fashion by a CoreLab located at the University and Civil Hospital of Brescia, Italy. E/e′ ratio was calculated as the ratio between the peak early diastolic mitral flow velocity (E wave) and the mean of the annular lateral (e′ lateral) and septal (e′ septal) velocities, according to standard guidelines.^20 Intraobserver and interobserver variability in E/e′ measurement was tested on the 15% of the recordings and is shown in FIG. 6. Self-reported dyspnoea was assessed using a 100 mm VAS, with zero representing the worst level of dyspnoea and 10 the best breathing condition. Twenty-four hour ECG monitoring was performed using a three-lead device (Mortara industries, Milwaukee, WI, USA) during the day of screening, the infusion period, and the day after (the latter was optional). Analysis was conducted by a blinded CoreLab (ICS Maugeri, Italy). […]
# [2] = system: dogs with chronic ischemic heart failure; details: cited from earlier work
# [3] = system: patients hospitalized for acute heart failure (AHF); assay: Vital signs (systolic blood pressure, heart rate) during and after 24 h infusion; type: in vivo, human
# Excerpt: as §1, §2
# The primary efficacy endpoint was the change from baseline to 24 h after the start of the infusion in the E/e ratio assessed by tissue Doppler echocardiography. Secondary endpoints included the change from baseline to 24 h of other echocardiography parameters: LVEF, left ventricular end-systolic and end-diastolic volumes, stroke volume index, E, A, E/A ratio, and S′: changes in dyspnoea by visual analogue scale (VAS) and in NT-proBNP from baseline to 24 h: proportion of patients with hospital readmissions or emergency visits for cardiovascular reasons by day 30; proportion of patients with episodes of in-hospital worsening heart failure to day 4, and length of stay. In-hospital worsening heart failure was defined by the need to increase the dose or reinitiate intravenous therapy with diuretics and/or other inotropic agents to day 4. Safety endpoints were assessed throughout the study and included: incidence of adverse events (AEs): change in vital signs and in 12-lead electrocardiographic (ECG) parameters: incidence of clinically or haemodynamically significant episodes of supraventricular or ventricular arrhythmias detected by continuous ECG monitoring: standard laboratory parameters: renal function: cardiac troponin T (cTnT): incidence of cTnT elevations, and mortality at day 30. Elevations in cTnT were considered significant if they were >50% or >20% from baseline values, for patients with cTnT below or above the 99% upper reference limit at baseline, respectively.
# The study design included a 24 h screening period, a 24 h study drug infusion phase (day 1), a post-treatment phase (days 2-4), and a follow-up visit at day 30 (FIG. 5). Patients could be enrolled at any time after admission. The use of oral medications was permitted during the study with the exception of digoxin. […]
# [4] = system: AHF patients with systolic blood pressure (SBP) of 90-150 mmHg; details: 0.5, 1.0, and 1.5 μg/kg/min for 6 h; cited from earlier work
compound,measurement,setting,value
"C[C@]12CCC(=NOCCN)C[C@@H]1C(=O)C[C@@H]1[C@@H]2CC[C@]2(C)C(=O)CC[C@@H]12 [Istaroxime, (E,Z)-3-((2-aminoethoxy)imino)androstane-6,17-dione hydrochloride]","Diuresis, median","[1]; 0.5 μg/kg/min, 0-24 h",2700 mL
same,"Diuresis, median","[1]; 0.5 μg/kg/min, 24-48 h",1800 mL
same,"Diuresis, median","[1]; 0.5 μg/kg/min, 48-72 h",1650 mL
same,"Diuresis, median","[1]; 1.0 μg/kg/min, 0-24 h",1975 mL
same,"Diuresis, median","[1]; 1.0 μg/kg/min, 24-48 h",1260 mL
same,"Diuresis, median","[1]; 1.0 μg/kg/min, 48-72 h",1350 mL
same,Overall diuresis during the 24 h infusion,[1]; compared to placebo,numerically higher
same,"myocardial relaxation (e′ diastolic velocity, tissue Doppler)",[2]; compared to dobutamine,improved myocardial relaxation
same,peak heart rate,[2]; compared with dobutamine,significantly lower
same,HR mean change from baseline,"[3]; 0.5 μg/Kg/min, 3 hours",−4.21 bpm
same,SBP mean change from baseline,"[3]; 0.5 μg/Kg/min, 3 hours",1.49 mmHg
same,HR mean change from baseline,"[3]; 0.5 μg/Kg/min, 6 hours",−3.51 bpm
same,SBP mean change from baseline,"[3]; 0.5 μg/Kg/min, 6 hours",2.92 mmHg
same,HR mean change from baseline,"[3]; 0.5 μg/Kg/min, 12 hours",−4.59 bpm
same,SBP mean change from baseline,"[3]; 0.5 μg/Kg/min, 12 hours",3.13 mmHg
same,HR mean change from baseline,"[3]; 0.5 μg/Kg/min, 24 hours",−3.26 bpm
same,SBP mean change from baseline,"[3]; 0.5 μg/Kg/min, 24 hours",2.82 mmHg
same,HR mean change from baseline,"[3]; 0.5 μg/Kg/min, 48 hours",−0.37 bpm
same,SBP mean change from baseline,"[3]; 0.5 μg/Kg/min, 48 hours",−3.10 mmHg
same,HR decreased from baseline by,[3]; 0.5 μg/kg/min,about 3 bpm
same,SBP increased from baseline by,[3]; 0.5 μg/kg/min,about 3 mmHg
same,HR mean change from baseline,"[3]; 1.0 μg/Kg/min, 3 hours",−10.61 bpm
same,SBP mean change from baseline,"[3]; 1.0 μg/Kg/min, 3 hours",7.63 mmHg
same,HR mean change from baseline,"[3]; 1.0 μg/Kg/min, 6 hours",−8.89 bpm
same,SBP mean change from baseline,"[3]; 1.0 μg/Kg/min, 6 hours",8.08 mmHg
same,HR mean change from baseline,"[3]; 1.0 μg/Kg/min, 12 hours",−9.49 bpm
same,SBP mean change from baseline,"[3]; 1.0 μg/Kg/min, 12 hours",9.00 mmHg
same,HR mean change from baseline,"[3]; 1.0 μg/Kg/min, 24 hours",−9.61 bpm
same,SBP mean change from baseline,"[3]; 1.0 μg/Kg/min, 24 hours",6.11 mmHg
same,HR mean change from baseline,"[3]; 1.0 μg/Kg/min, 48 hours",3.86 bpm
same,SBP mean change from baseline,"[3]; 1.0 μg/Kg/min, 48 hours",−1.73 mmHg
same,SBP increased from baseline by,"[3]; 1.0 μg/kg/min, significant vs. placebo at 3 to 12 h",6-8 mmHg
same,HR decreased from baseline by,"[3]; 1.0 μg/kg/min, significant vs. placebo at 3 to 24 h",8-9 bpm
same,cardiac index,[4],increased only at the highest dose
same,lusitropic effect assessed by increased mitral deceleration time,[4],occurred only at the highest dose
